The values that follow come from patent US8476265B2, “Compounds-801” (AstraZeneca AB, priority 2010, dated 2013).

In assay [1] the target is T1, Adrenergic β2 (Homo sapiens, UniProt P07550).
T1 construct: Adherent H292 cells are removed from tissue culture flasks by treatment with Accutase™ cell detachment solution; endogenous in cells; host or cells: H292 cells
Description: Adrenergic β2 mediated cAMP production in H292 cells, single concentration 1 μM. The format is cell-based. The note with it: NCI-H292, 1 μM compound, cAMP as percentage of the maximum response generated by 1E-07M formoterol, read-out: β2 % effect @1 uM. The gist of the method: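 H292 cells pretreated with rolipram (300 μM final) 10 min, then compound at 1 μM final, 1% DMSO, 60 min at room temperature in HBSS/10 mM HEPES pH 7.4/5 mM glucose. Lysate cAMP quantified by AlphaScreen against a standard curve, as % of maximal response to 1E-07M formoterol.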

Assay [2] addresses T1, Adrenergic β2. Nature of the assay: Adrenergic β2 mediated cAMP production in H292 cells (AlphaScreen), concentration response. The class given is cell-based. The note with it: for EC50: 60 min, 300 μM rolipram, read-out: β2 pEC50 (converted); for β2 Intrinsic Activity: fraction relative to the maximum activity determined for formoterol. The procedure, abridged:
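Intracellular cAMP in lysates read by AlphaScreen, calibrated with cAMP standards; curves fitted for pEC50, with intrinsic activity as a fraction of formoterol's maximum. Agonist exposure 60 min at room temperature after 10 min rolipram (300 μM final), 1% DMSO, HEPES-buffered HBSS pH 7.4.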
On the technique in general: Cyclic AMP is a second messenger, typically raised through Gs and lowered through Gi signalling.

Assay [3] deals with T2, human muscarinic acetylcholine M3 receptor (Homo sapiens, UniProt P20309).
T2 construct: expressed in transfected cells; host or cells: CHO-K1 (Chinese Hamster Ovary) cell membranes
T2 sequence (P20309 whole entry): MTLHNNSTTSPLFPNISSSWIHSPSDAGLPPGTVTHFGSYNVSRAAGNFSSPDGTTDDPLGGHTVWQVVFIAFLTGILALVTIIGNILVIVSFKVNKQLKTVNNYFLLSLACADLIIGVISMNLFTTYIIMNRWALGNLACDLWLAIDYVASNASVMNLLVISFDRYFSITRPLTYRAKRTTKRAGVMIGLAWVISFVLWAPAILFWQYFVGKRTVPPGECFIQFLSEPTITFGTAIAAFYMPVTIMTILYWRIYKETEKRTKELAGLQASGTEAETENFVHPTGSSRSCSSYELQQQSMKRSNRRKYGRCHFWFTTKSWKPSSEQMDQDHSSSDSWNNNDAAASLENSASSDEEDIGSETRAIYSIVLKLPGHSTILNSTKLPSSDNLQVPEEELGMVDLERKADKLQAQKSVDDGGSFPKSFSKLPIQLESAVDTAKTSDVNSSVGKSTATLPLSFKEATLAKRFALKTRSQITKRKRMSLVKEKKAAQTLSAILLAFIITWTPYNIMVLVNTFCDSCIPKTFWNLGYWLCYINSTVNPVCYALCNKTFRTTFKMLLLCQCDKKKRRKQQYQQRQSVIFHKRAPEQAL
Description: Muscarinic 3 receptor binding assay ([3H]NMS competition, SPA), single concentration 1 μM. The conditions noted are these: 1 μM compound; % inhibition specific [3H]-NMS binding. The procedure, abridged: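 CHO-K1 membranes expressing human M3 on SPA beads, competition with 0.1 nM [3H]NMS (quarter Kd) in 20 mM HEPES pH 7.4, 5 mM MgCl2, 0.1% BSA, 1% DMSO; compound at 1 μM. 16 h at room temperature. Value is % inhibition of specific binding, non-specific defined with 1 μM atropine.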

For assay [4], the target named is T2, human muscarinic acetylcholine M3 receptor. Nature of the assay: Muscarinic 3 receptor binding assay ([3H]NMS competition, SPA), pIC50. The note with it: [3H]NMS 0.1 nM, CHO-K1 cell membranes expressing human M3 receptor. The gist of the method: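 SPA beads precoated with human M3-expressing CHO-K1 membranes were incubated 16 h at room temperature with serially diluted compound and 0.1 nM [3H]NMS (pH 7.4 HEPES buffer, MgCl2, BSA, 1% DMSO). Atropine (1 μM) defined non-specific binding; pIC50 is the 50% reduction in specific binding.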

T1 sequence (P07550 whole entry): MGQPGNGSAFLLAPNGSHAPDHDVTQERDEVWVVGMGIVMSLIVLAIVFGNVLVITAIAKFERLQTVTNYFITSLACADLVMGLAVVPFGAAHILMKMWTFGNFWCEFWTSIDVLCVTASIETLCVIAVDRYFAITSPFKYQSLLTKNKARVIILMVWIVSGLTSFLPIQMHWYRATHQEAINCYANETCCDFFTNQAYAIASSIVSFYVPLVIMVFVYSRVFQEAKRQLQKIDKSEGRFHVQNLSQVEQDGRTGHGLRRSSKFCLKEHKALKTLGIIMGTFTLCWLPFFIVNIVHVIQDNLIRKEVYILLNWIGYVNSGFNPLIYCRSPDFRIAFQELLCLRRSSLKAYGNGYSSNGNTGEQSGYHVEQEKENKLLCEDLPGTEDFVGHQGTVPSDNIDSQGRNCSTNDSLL

For orientation: inhibition means the change of the read-out against control, counted positive when it falls. One may read the IC50 as the midpoint of a concentration-inhibition curve. A low value points to inhibition by little substance. For `Cc1ccn2cc(C(=O)N3CCOC4(CCN(Cc5cccc(CCOCCC(=O)N(CCNCCc6ccc(O)c7c6OCC(=O)N7)C6CCCCC6)c5)CC4)C3)nc2c1` [Example 150, N-Cyclohexyl-N-(2-(2-(5-hydroxy-3-oxo-3,4-dihydro-2H-benzo[b][1,4]oxazin-8-yl)ethylamino)ethyl)-3-(3-((4-(7-methylimidazo[1,2-a]pyridine-2-carbonyl)-1-oxa-4,9-diazaspiro[5.5]undecan-9-yl)methyl)phenethoxy)propanamide], the percent of formoterol maximum response at 1 µM in assay [1] is 104%. Besides, in assay [2], the EC50 was 79.4 nM and the “β2 Intrinsic Activity” value was determined as 0.5. In addition, the inhibition at 1 µM in assay [3] stood at 99%. For the same compound, in assay [4], the 50% inhibitory concentration (IC50) is 3.16 nM.

With `Cc1ccc(C(=O)N2CCOC3(CCN(Cc4cccc(CCOCCC(=O)N(CCNCCc5ccc(O)c6c5OCC(=O)N6)C5CCCCC5)c4)CC3)C2)s1` [Example 154, N-Cyclohexyl-N-(2-(2-(5-hydroxy-3-oxo-3,4-dihydro-2H-benzo[b][1,4]oxazin-8-yl)ethylamino)ethyl)-3-(3-((4-(5-methylthiophene-2-carbonyl)-1-oxa-4,9-diazaspiro[5.5]undecan-9-yl)methyl)phenethoxy)propanamide], the percent of formoterol maximum response at 1 µM in assay [1] amounted to 101%. For the same compound, in assay [2], the EC50 is 100 nM and the “β2 Intrinsic Activity” value is listed as 1.0. Besides, the inhibition at 1 µM in assay [3] was 101%. Moreover, in assay [4], the IC50 is 0.316 nM.

For the compound `O=C1COc2c(CCNCCN(C(=O)CCOCCc3cccc(CN4CCC5(CC4)CN(C(=O)c4ccc6c(c4)OCO6)CCO5)c3)C3CCCCC3)ccc(O)c2N1` [Example 157, 3-(3-((4-(Benzo[d][1,3]dioxole-5-carbonyl)-1-oxa-4,9-diazaspiro[5.5]undecan-9-yl)methyl)phenethoxy)-N-cyclohexyl-N-(2-(2-(5-hydroxy-3-oxo-3,4-dihydro-2H-benzo[b][1,4]oxazin-8-yl)ethylamino)ethyl)propanamide], in assay [1], the percent of formoterol maximum response at 1 µM came out at 97%. In addition, in assay [2], the EC50 was 63.1 nM and the “β2 Intrinsic Activity” value stood at 0.8. Besides, in assay [3], the inhibition at 1 µM was 101%. This compound also showed a half-maximal inhibitory concentration (IC50) in assay [4] of 1.58 nM.

Turning to `Cc1ccoc1C(=O)N1CCOC2(CCN(Cc3cccc(CCOCCC(=O)N(CCNCCc4ccc(O)c5c4OCC(=O)N5)C4CCCCC4)c3)CC2)C1` [Example 159, N-Cyclohexyl-N-(2-(2-(5-hydroxy-3-oxo-3,4-dihydro-2H-benzo[b][1,4]oxazin-8-yl)ethylamino)ethyl)-3-(3-((4-(3-methylfuran-2-carbonyl)-1-oxa-4,9-diazaspiro[5.5]undecan-9-yl)methyl)phenethoxy)propanamide], the percent of formoterol maximum response at 1 µM in assay [1] amounted to 87%. Besides, in assay [2], the EC50 was 79.4 nM and the “β2 Intrinsic Activity” value worked out at 0.9. Further, the inhibition at 1 µM in assay [3] was 100%. The same compound gave an IC50 in assay [4] of 1.26 nM.

`O=C1COc2c(CCNCCN(C(=O)CCOCCc3cccc(CN4CCC5(CC4)CN(C(=O)c4ccc6cccnc6n4)CCO5)c3)C3CCCCC3)ccc(O)c2N1` [Example 161, 3-(3-((4-(1,8-Naphthyridine-2-carbonyl)-1-oxa-4,9-diazaspiro[5.5]undecan-9-yl)methyl)phenethoxy)-N-cyclohexyl-N-(2-(2-(5-hydroxy-3-oxo-3,4-dihydro-2H-benzo[b][1,4]oxazin-8-yl)ethylamino)ethyl)propanamide]: in assay [1], the percent of formoterol maximum response at 1 µM turned out to be 97%. In assay [2], the EC50 was 39.8 nM and the “β2 Intrinsic Activity” value is given as 1.0. Moreover, the inhibition at 1 µM in assay [3] came out at 100%. Also, the IC50 in assay [4] was 0.501 nM.

Take `O=C1COc2c(CCNCCN(C(=O)CCOCCc3cccc(CN4CCC5(CC4)CN(C(=O)c4cccc(Cl)c4)CCO5)c3)C3CCCCC3)ccc(O)c2N1` [Example 164, 3-(3-((4-(3-Chlorobenzoyl)-1-oxa-4,9-diazaspiro[5.5]undecan-9-yl)methyl)phenethoxy)-N-cyclohexyl-N-(2-(2-(5-hydroxy-3-oxo-3,4-dihydro-2H-benzo[b][1,4]oxazin-8-yl)ethylamino)ethyl)propanamide]: in assay [1], the percent of formoterol maximum response at 1 µM is 96%. In assay [2], the EC50 was 79.4 nM and the “β2 Intrinsic Activity” value is 0.8. Further, in assay [3], the inhibition at 1 µM was 99%. In assay [4], this compound had a half-inhibitory concentration (IC50) of 2.51 nM.

`O=C1COc2c(CCNCCN(C(=O)CCOCCc3cccc(CN4CCC5(CC4)CN(C(=O)CCOc4ccccc4)CCO5)c3)C3CCCCC3)ccc(O)c2N1` [Example 165, N-Cyclohexyl-N-(2-(2-(5-hydroxy-3-oxo-3,4-dihydro-2H-benzo[b][1,4]oxazin-8-yl)ethylamino)ethyl)-3-(3-((4-(3-phenoxypropanoyl)-1-oxa-4,9-diazaspiro[5.5]undecan-9-yl)methyl)phenethoxy)propanamide]: the percent of formoterol maximum response at 1 µM in assay [1] amounted to 99%. In assay [2], the EC50 was 79.4 nM and the “β2 Intrinsic Activity” value is on record as 1.1. Further, in assay [3], the inhibition at 1 µM is 100%. In assay [4], this compound showed an IC50 of 1 nM.

For `O=C1COc2c(CCNCCN(C(=O)CCOCCc3cccc(CN4CCC5(CC4)CN(C(=O)[C@@H]4C[C@H]4c4ccccc4)CCO5)c3)C3CCCCC3)ccc(O)c2N1` [Example 167, N-Cyclohexyl-N-(2-(2-(5-hydroxy-3-oxo-3,4-dihydro-2H-benzo[b][1,4]oxazin-8-yl)ethylamino)ethyl)-3-(3-((4-((1R,2R)-2-phenylcyclopropanecarbonyl)-1-oxa-4,9-diazaspiro[5.5]undecan-9-yl)methyl)phenethoxy)propanamide], the percent of formoterol maximum response at 1 µM in assay [1] worked out at 105%. Further, in assay [2], the EC50 was 100 nM and the “β2 Intrinsic Activity” value is given as 0.4. Also, in assay [3], the inhibition at 1 µM turned out to be 101%. This compound showed an IC50 in assay [4] of 0.316 nM.

`O=C1COc2c(CCNCCN(C(=O)CCOCCc3cccc(CN4CCC5(CC4)CN(C(=O)c4csc(CC(F)(F)F)n4)CCO5)c3)C3CCCCC3)ccc(O)c2N1` [Example 174, N-Cyclohexyl-N-(2-(2-(5-hydroxy-3-oxo-3,4-dihydro-2H-benzo[b][1,4]oxazin-8-yl)ethylamino)ethyl)-3-(3-((4-(2-(2,2,2-trifluoroethyl)thiazole-4-carbonyl)-1-oxa-4,9-diazaspiro[5.5]undecan-9-yl)methyl)phenethoxy)propanamide]: in assay [1], the percent of formoterol maximum response at 1 µM was 88%. Further, in assay [2], the EC50 is 50.1 nM and the “β2 Intrinsic Activity” value is recorded as 1.0. Besides, the inhibition at 1 µM in assay [3] worked out at 100%. This compound also showed an IC50 in assay [4] of 0.251 nM.

In the case of `CCCCc1nc(C(=O)N2CCOC3(CCN(Cc4cccc(CCOCCC(=O)N(CCNCCc5ccc(O)c6c5OCC(=O)N6)C5CCCCC5)c4)CC3)C2)cs1` [Example 175, 3-(3-((4-(2-Butylthiazole-4-carbonyl)-1-oxa-4,9-diazaspiro[5.5]undecan-9-yl)methyl)phenethoxy)-N-cyclohexyl-N-(2-(2-(5-hydroxy-3-oxo-3,4-dihydro-2H-benzo[b][1,4]oxazin-8-yl)ethylamino)ethyl)propanamide], the percent of formoterol maximum response at 1 µM in assay [1] was found to be 86%. Also, in assay [2], the EC50 is 63.1 nM and the “β2 Intrinsic Activity” value is reported as 1.0. Further, the inhibition at 1 µM in assay [3] is 100%. Moreover, the IC50 in assay [4] was 0.316 nM.
